From patent US10766902B2, “Wee-1 inhibiting pyrazolopyrimidinone compounds” (ALMAC DISCOVERY LIMITED, priority 2016, dated 2020)

Experiments:
Format in all cases: biochemical
Settings in all cases: tested at 300-350 nM
ABL1 = ABL1 (Homo sapiens (Human), UniProt P00519); experiment: SelectScreen Kinase Profiling: ABL1
From the text: (§1) Table 4 below highlights the selectivity of a representative compound of the invention, Example 5, against a panel of 50 kinases (assessed using the Invitrogen SelectScreen® Kinase Profiling Service).

ACVR1B (ALK4) = ACVR1B (ALK4) (Homo sapiens (Human), UniProt P36896); experiment: SelectScreen Kinase Profiling: ACVR1B (ALK4)
From the text: as §1

AKT1 (PKB alpha) = AKT1 (PKB alpha) (Homo sapiens (Human), UniProt P31749); experiment: SelectScreen Kinase Profiling: AKT1 (PKB alpha)
From the text: as §1

AMPK A1/B1/G1 = AMPK A1/B1/G1 (Homo sapiens (Human), UniProt Q13131); experiment: SelectScreen Kinase Profiling: AMPK A1/B1/G1
From the text: as §1

AURKA (Aurora A) = AURKA (Aurora A) (Homo sapiens (Human), UniProt O14965); experiment: SelectScreen Kinase Profiling: AURKA (Aurora A)
Sequence of AURKA (Aurora A) (O14965 whole entry): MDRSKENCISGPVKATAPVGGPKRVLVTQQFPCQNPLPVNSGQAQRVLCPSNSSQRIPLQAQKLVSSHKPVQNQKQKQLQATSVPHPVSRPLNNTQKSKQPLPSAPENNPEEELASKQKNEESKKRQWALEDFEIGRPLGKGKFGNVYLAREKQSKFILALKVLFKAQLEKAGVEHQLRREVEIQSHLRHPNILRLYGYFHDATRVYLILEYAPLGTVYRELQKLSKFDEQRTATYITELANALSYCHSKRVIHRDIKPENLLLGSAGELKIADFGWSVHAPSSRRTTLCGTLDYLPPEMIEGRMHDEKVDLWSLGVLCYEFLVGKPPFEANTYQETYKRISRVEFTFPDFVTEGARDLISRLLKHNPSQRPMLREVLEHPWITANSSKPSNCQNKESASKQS
From the text: as §1

BTK = BTK (Homo sapiens (Human), UniProt Q06187); experiment: SelectScreen Kinase Profiling: BTK
From the text: as §1

CDK1/cyclin B = CDK1/cyclin B (Homo sapiens (Human), UniProt P06493); experiment: SelectScreen Kinase Profiling: CDK1/cyclin B
Sequence of CDK1/cyclin B (P06493 whole entry): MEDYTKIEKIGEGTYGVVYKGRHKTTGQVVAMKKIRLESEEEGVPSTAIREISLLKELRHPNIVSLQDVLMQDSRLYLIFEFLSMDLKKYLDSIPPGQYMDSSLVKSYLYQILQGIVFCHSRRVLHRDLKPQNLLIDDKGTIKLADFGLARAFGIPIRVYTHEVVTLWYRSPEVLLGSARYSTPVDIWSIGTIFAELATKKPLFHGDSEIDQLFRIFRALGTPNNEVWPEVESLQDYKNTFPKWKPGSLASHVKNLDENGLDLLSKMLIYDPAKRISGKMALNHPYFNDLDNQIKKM
Sequence of CDK1/cyclin B (P14635 whole entry partner): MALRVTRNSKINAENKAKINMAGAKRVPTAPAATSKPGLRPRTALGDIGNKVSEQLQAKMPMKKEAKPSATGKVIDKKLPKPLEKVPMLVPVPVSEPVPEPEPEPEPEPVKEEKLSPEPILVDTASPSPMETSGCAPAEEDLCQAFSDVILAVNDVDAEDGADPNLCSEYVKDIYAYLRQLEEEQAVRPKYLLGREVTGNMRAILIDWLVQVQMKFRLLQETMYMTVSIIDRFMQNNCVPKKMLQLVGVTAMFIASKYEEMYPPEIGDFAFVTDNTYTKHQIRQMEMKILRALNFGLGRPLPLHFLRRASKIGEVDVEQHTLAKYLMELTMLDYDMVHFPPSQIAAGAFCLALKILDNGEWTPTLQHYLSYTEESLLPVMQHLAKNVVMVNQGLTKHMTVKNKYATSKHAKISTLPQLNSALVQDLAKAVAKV
From the text: as §1

CHEK1 (CHK1) = CHEK1 (CHK1) (Homo sapiens (Human), UniProt O14757); experiment: SelectScreen Kinase Profiling: CHEK1 (CHK1)
Sequence of CHEK1 (CHK1) (O14757 whole entry): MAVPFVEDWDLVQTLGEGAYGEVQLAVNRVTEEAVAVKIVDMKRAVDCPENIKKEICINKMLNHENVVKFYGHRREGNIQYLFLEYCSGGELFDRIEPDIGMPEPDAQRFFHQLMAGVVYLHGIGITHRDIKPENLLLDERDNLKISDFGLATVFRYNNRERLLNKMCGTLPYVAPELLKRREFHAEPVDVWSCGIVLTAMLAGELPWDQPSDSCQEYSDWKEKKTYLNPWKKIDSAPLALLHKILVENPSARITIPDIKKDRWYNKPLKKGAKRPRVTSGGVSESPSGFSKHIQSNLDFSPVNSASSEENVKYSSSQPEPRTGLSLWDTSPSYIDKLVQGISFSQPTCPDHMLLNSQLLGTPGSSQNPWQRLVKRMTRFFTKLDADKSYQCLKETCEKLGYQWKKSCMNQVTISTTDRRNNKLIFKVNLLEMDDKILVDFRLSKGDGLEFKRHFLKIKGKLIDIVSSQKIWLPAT
From the text: as §1

CSNK1G2 (CK1 gamma 2) = CSNK1G2 (CK1 gamma 2) (Homo sapiens (Human), UniProt P78368); experiment: SelectScreen Kinase Profiling: CSNK1G2 (CK1 gamma 2)
From the text: as §1

CSNK2A1 (CK2 alpha 1) = CSNK2A1 (CK2 alpha 1) (Homo sapiens (Human), UniProt P68400); experiment: SelectScreen Kinase Profiling: CSNK2A1 (CK2 alpha 1)
From the text: as §1

DYRK3 = DYRK3 (Homo sapiens (Human), UniProt O43781); experiment: SelectScreen Kinase Profiling: DYRK3
Sequence of DYRK3 (O43781 whole entry): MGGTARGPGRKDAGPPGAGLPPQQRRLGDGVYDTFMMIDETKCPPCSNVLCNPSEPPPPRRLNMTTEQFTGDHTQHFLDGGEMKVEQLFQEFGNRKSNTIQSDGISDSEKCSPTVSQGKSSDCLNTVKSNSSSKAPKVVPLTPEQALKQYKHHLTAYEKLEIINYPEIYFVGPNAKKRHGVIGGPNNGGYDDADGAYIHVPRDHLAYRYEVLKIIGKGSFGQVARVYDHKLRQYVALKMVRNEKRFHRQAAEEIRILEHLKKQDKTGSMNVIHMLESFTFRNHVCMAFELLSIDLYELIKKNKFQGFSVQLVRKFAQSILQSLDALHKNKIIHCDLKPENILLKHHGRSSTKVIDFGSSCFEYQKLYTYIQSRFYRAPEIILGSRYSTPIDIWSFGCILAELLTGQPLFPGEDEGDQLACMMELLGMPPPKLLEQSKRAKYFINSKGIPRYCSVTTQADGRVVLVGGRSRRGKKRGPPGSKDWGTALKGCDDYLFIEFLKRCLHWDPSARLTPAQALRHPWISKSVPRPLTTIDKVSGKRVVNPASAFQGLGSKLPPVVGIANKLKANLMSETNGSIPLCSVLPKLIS
From the text: as §1

EGFR (ErbB1) = EGFR (ErbB1) (Homo sapiens (Human), UniProt P00533); experiment: SelectScreen Kinase Profiling: EGFR (ErbB1)
From the text: as §1

EPHA2 = EPHA2 (Homo sapiens (Human), UniProt P29317); experiment: SelectScreen Kinase Profiling: EPHA2
From the text: as §1

ERBB2 (HER2) = ERBB2 (HER2) (Homo sapiens (Human), UniProt P04626); experiment: SelectScreen Kinase Profiling: ERBB2 (HER2)
From the text: as §1

FGFR1 = FGFR1 (Homo sapiens (Human), UniProt P11362); experiment: SelectScreen Kinase Profiling: FGFR1
Sequence of FGFR1 (P11362 22-822): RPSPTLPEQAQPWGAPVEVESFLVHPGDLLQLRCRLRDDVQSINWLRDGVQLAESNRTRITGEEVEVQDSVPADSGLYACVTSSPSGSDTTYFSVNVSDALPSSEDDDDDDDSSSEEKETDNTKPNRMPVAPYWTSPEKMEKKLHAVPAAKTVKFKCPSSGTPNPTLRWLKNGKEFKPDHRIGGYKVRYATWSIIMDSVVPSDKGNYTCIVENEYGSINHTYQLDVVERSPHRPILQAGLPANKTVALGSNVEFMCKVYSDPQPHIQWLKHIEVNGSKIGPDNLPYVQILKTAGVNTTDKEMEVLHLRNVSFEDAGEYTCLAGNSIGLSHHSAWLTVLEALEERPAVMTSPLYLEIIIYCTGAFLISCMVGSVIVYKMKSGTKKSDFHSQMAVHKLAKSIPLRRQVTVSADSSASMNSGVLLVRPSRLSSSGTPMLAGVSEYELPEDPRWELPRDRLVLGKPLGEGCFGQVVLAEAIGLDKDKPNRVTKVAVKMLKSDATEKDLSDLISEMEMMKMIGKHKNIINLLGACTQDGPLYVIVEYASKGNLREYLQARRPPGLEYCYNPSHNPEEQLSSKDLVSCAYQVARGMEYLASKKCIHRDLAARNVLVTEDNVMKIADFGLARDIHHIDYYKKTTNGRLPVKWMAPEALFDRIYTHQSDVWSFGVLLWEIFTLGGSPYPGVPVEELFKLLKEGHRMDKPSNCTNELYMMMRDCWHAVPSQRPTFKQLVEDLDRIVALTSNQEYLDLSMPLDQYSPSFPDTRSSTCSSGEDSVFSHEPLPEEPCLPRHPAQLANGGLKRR
From the text: as §1

FLT3 = FLT3 (Homo sapiens (Human), UniProt P36888); experiment: SelectScreen Kinase Profiling: FLT3
Sequence of FLT3 (P36888 27-993): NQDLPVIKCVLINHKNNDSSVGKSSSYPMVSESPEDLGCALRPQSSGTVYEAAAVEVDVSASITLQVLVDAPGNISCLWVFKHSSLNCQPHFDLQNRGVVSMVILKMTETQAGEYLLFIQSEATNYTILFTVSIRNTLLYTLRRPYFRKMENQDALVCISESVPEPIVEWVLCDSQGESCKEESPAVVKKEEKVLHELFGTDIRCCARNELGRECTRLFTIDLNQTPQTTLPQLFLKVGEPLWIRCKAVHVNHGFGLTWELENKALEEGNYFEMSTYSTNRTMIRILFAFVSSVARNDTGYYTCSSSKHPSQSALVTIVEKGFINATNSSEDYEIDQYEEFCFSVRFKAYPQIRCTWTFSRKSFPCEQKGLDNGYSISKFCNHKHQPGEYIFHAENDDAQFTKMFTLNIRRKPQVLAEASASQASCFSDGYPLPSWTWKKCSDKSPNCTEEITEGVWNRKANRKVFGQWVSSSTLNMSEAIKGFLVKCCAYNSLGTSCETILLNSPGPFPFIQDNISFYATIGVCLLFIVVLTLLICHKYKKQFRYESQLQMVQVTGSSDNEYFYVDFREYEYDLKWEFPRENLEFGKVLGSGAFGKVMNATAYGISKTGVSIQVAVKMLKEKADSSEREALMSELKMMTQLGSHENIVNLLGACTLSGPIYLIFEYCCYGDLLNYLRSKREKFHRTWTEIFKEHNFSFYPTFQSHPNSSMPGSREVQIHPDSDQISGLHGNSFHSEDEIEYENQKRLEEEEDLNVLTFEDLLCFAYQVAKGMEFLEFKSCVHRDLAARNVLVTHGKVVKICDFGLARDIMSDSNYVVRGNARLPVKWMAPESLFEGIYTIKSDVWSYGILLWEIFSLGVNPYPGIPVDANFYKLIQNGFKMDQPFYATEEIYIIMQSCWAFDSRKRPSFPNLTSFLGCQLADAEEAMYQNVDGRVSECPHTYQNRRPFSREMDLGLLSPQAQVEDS
From the text: as §1

FRAP1 (mTOR) = FRAP1 (mTOR) (Homo sapiens (Human), UniProt P42345); experiment: SelectScreen Kinase Profiling: FRAP1 (mTOR)
From the text: as §1

GSK3B (GSK3 beta) = GSK3B (GSK3 beta) (Homo sapiens (Human), UniProt P49841); experiment: SelectScreen Kinase Profiling: GSK3B (GSK3 beta)
From the text: as §1

IGF1R = IGF1R (Homo sapiens (Human), UniProt P08069); experiment: SelectScreen Kinase Profiling: IGF1R
From the text: as §1

IKBKB (IKK beta) = IKBKB (IKK beta) (Homo sapiens (Human), UniProt O14920); experiment: SelectScreen Kinase Profiling: IKBKB (IKK beta)
From the text: as §1

INSR = INSR (Homo sapiens (Human), UniProt P06213); experiment: SelectScreen Kinase Profiling: INSR
From the text: as §1

IRAK4 = IRAK4 (Homo sapiens (Human), UniProt Q9NWZ3); experiment: SelectScreen Kinase Profiling: IRAK4
From the text: as §1

JAK3 = JAK3 (Homo sapiens (Human), UniProt P52333); experiment: SelectScreen Kinase Profiling: JAK3
From the text: as §1

KDR (VEGFR2) = KDR (VEGFR2) (Homo sapiens (Human), UniProt P35968); experiment: SelectScreen Kinase Profiling: KDR (VEGFR2)
From the text: as §1

KIT = KIT (Homo sapiens (Human), UniProt P10721); experiment: SelectScreen Kinase Profiling: KIT
From the text: as §1

MAP2K1 (MEK1) = MAP2K1 (MEK1) (Homo sapiens (Human), UniProt Q02750); experiment: SelectScreen Kinase Profiling: MAP2K1 (MEK1)
From the text: as §1

MAP4K4 (HGK) = MAP4K4 (HGK) (Homo sapiens (Human), UniProt O95819); experiment: SelectScreen Kinase Profiling: MAP4K4 (HGK)
From the text: as §1

MAPK1 (ERK2) = MAPK1 (ERK2) (Homo sapiens (Human), UniProt P28482); experiment: SelectScreen Kinase Profiling: MAPK1 (ERK2)
From the text: as §1

MAPK14 (p38 alpha) = MAPK14 (p38 alpha) (Homo sapiens (Human), UniProt Q16539); experiment: SelectScreen Kinase Profiling: MAPK14 (p38 alpha)
From the text: as §1

MAPK8 (JNK1) = MAPK8 (JNK1) (Homo sapiens (Human), UniProt P45983); experiment: SelectScreen Kinase Profiling: MAPK8 (JNK1)
From the text: as §1

MAPKAPK2 = MAPKAPK2 (Homo sapiens (Human), UniProt P49137); experiment: SelectScreen Kinase Profiling: MAPKAPK2
From the text: as §1

MARK2 = MARK2 (Homo sapiens (Human), UniProt Q7KZI7); experiment: SelectScreen Kinase Profiling: MARK2
From the text: as §1

MET (cMet) = MET (cMet) (Homo sapiens (Human), UniProt P08581); experiment: SelectScreen Kinase Profiling: MET (cMet)
From the text: as §1

NEK1 = NEK1 (Homo sapiens (Human), UniProt Q96PY6); experiment: SelectScreen Kinase Profiling: NEK1
From the text: as §1

NTRK1 (TRKA) = NTRK1 (TRKA) (Homo sapiens (Human), UniProt P04629); experiment: SelectScreen Kinase Profiling: NTRK1 (TRKA)
From the text: as §1

PAK4 = PAK4 (Homo sapiens (Human), UniProt O96013); experiment: SelectScreen Kinase Profiling: PAK4
From the text: as §1

PDGFRB (PDGFR beta) = PDGFRB (PDGFR beta) (Homo sapiens (Human), UniProt P09619); experiment: SelectScreen Kinase Profiling: PDGFRB (PDGFR beta)
From the text: as §1

PHKG2 = PHKG2 (Homo sapiens (Human), UniProt P15735); experiment: SelectScreen Kinase Profiling: PHKG2
From the text: as §1

PIM1 = PIM1 (Homo sapiens (Human), UniProt P11309); experiment: SelectScreen Kinase Profiling: PIM1
Sequence of PIM1 (P11309 whole entry): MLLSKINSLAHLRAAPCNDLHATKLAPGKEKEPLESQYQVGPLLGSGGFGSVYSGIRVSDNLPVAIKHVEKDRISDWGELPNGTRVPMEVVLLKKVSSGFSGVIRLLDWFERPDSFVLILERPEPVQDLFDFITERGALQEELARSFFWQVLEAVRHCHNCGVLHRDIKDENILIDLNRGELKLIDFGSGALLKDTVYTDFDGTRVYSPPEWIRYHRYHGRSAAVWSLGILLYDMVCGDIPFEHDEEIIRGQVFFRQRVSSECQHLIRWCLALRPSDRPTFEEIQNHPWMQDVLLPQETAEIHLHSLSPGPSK
From the text: as §1

PLK1 = PLK1 (Homo sapiens (Human), UniProt P53350); experiment: SelectScreen Kinase Profiling: PLK1
From the text: as §1

PRKACA (PKA) = PRKACA (PKA) (Homo sapiens (Human), UniProt P17612); experiment: SelectScreen Kinase Profiling: PRKACA (PKA)
From the text: as §1

PRKCB1 (PKC beta I) = PRKCB1 (PKC beta I) (Homo sapiens (Human), UniProt P05771); experiment: SelectScreen Kinase Profiling: PRKCB1 (PKC beta I)
Sequence of PRKCB1 (PKC beta I) (P05771 whole entry): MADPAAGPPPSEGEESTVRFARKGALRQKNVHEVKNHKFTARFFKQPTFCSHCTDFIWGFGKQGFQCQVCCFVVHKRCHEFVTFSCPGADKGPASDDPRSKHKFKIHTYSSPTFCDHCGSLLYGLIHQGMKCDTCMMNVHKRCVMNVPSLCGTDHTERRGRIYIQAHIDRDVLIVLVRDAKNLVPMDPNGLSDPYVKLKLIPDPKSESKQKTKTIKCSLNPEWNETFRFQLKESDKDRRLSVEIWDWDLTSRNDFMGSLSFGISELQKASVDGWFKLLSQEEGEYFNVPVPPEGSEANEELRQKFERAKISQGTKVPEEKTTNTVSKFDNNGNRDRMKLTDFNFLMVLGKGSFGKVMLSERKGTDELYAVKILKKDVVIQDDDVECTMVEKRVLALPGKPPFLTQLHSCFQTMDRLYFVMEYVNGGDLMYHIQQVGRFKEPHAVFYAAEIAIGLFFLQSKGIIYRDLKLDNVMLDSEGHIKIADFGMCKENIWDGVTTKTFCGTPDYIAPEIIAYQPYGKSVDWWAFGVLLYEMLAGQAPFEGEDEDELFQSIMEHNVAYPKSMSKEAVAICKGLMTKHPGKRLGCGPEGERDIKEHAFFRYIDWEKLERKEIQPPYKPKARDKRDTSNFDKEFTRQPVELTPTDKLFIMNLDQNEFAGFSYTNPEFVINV
From the text: as §1

ROCK1 = ROCK1 (Homo sapiens (Human), UniProt Q13464); experiment: SelectScreen Kinase Profiling: ROCK1
From the text: as §1

RPS6KA3 (RSK2) = RPS6KA3 (RSK2) (Homo sapiens (Human), UniProt P51812); experiment: SelectScreen Kinase Profiling: RPS6KA3 (RSK2)
From the text: as §1

RPS6KB1 (p70S6K) = RPS6KB1 (p70S6K) (Homo sapiens (Human), UniProt P23443); experiment: SelectScreen Kinase Profiling: RPS6KB1 (p70S6K)
From the text: as §1

SRC = SRC (Homo sapiens (Human), UniProt P12931); experiment: SelectScreen Kinase Profiling: SRC
From the text: as §1

SYK = SYK (Homo sapiens (Human), UniProt P43405); experiment: SelectScreen Kinase Profiling: SYK
From the text: as §1

TEK (Tie2) = TEK (Tie2) (Homo sapiens (Human), UniProt Q02763); experiment: SelectScreen Kinase Profiling: TEK (Tie2)
From the text: as §1

Compound: C=CCn1c(=O)c2cnc(Nc3ccc(N4CCN(C)CC4)cc3)nc2n1-c1cccc(C(C)(C)O)n1 [reference compound]
- inhibition of ABL1 (ABL1): + (inhibition over 50% (tested at 300-350 nM))
- inhibition of ACVR1B (ALK4) (ACVR1B (ALK4)): − (inhibition under 50% (tested at 300-350 nM))
- inhibition of AKT1 (PKB alpha) (AKT1 (PKB alpha)): − (inhibition under 50% (tested at 300-350 nM))
- inhibition of AMPK A1/B1/G1 (AMPK A1/B1/G1): − (inhibition under 50% (tested at 300-350 nM))
- inhibition of AURKA (Aurora A) (AURKA (Aurora A)): − (inhibition under 50% (tested at 300-350 nM))
- inhibition of BTK (BTK): − (inhibition under 50% (tested at 300-350 nM))
- inhibition of CDK1/cyclin B (CDK1/cyclin B): − (inhibition under 50% (tested at 300-350 nM))
- inhibition of CHEK1 (CHK1) (CHEK1 (CHK1)): − (inhibition under 50% (tested at 300-350 nM))
- inhibition of CSNK1G2 (CK1 gamma 2) (CSNK1G2 (CK1 gamma 2)): − (inhibition under 50% (tested at 300-350 nM))
- inhibition of CSNK2A1 (CK2 alpha 1) (CSNK2A1 (CK2 alpha 1)): − (inhibition under 50% (tested at 300-350 nM))
- inhibition of DYRK3 (DYRK3): − (inhibition under 50% (tested at 300-350 nM))
- inhibition of EGFR (ErbB1) (EGFR (ErbB1)): + (inhibition over 50% (tested at 300-350 nM))
- inhibition of EPHA2 (EPHA2): − (inhibition under 50% (tested at 300-350 nM))
- inhibition of ERBB2 (HER2) (ERBB2 (HER2)): − (inhibition under 50% (tested at 300-350 nM))
- inhibition of FGFR1 (FGFR1): − (inhibition under 50% (tested at 300-350 nM))
- inhibition of FLT3 (FLT3): − (inhibition under 50% (tested at 300-350 nM))
- inhibition of FRAP1 (mTOR) (FRAP1 (mTOR)): − (inhibition under 50% (tested at 300-350 nM))
- inhibition of GSK3B (GSK3 beta) (GSK3B (GSK3 beta)): − (inhibition under 50% (tested at 300-350 nM))
- inhibition of IGF1R (IGF1R): − (inhibition under 50% (tested at 300-350 nM))
- inhibition of IKBKB (IKK beta) (IKBKB (IKK beta)): − (inhibition under 50% (tested at 300-350 nM))
- inhibition of INSR (INSR): − (inhibition under 50% (tested at 300-350 nM))
- inhibition of IRAK4 (IRAK4): − (inhibition under 50% (tested at 300-350 nM))
- inhibition of JAK3 (JAK3): − (inhibition under 50% (tested at 300-350 nM))
- inhibition of KDR (VEGFR2) (KDR (VEGFR2)): − (inhibition under 50% (tested at 300-350 nM))
- inhibition of KIT (KIT): − (inhibition under 50% (tested at 300-350 nM))
- inhibition of MAP2K1 (MEK1) (MAP2K1 (MEK1)): − (inhibition under 50% (tested at 300-350 nM))
- inhibition of MAP4K4 (HGK) (MAP4K4 (HGK)): + (inhibition over 50% (tested at 300-350 nM))
- inhibition of MAPK1 (ERK2) (MAPK1 (ERK2)): − (inhibition under 50% (tested at 300-350 nM))
- inhibition of MAPK14 (p38 alpha) (MAPK14 (p38 alpha)): − (inhibition under 50% (tested at 300-350 nM))
- inhibition of MAPK8 (JNK1) (MAPK8 (JNK1)): − (inhibition under 50% (tested at 300-350 nM))
- inhibition of MAPKAPK2 (MAPKAPK2): − (inhibition under 50% (tested at 300-350 nM))
- inhibition of MARK2 (MARK2): − (inhibition under 50% (tested at 300-350 nM))
- inhibition of MET (cMet) (MET (cMet)): − (inhibition under 50% (tested at 300-350 nM))
- inhibition of NEK1 (NEK1): − (inhibition under 50% (tested at 300-350 nM))
- inhibition of NTRK1 (TRKA) (NTRK1 (TRKA)): − (inhibition under 50% (tested at 300-350 nM))
- inhibition of PAK4 (PAK4): − (inhibition under 50% (tested at 300-350 nM))
- inhibition of PDGFRB (PDGFR beta) (PDGFRB (PDGFR beta)): − (inhibition under 50% (tested at 300-350 nM))
- inhibition of PHKG2 (PHKG2): − (inhibition under 50% (tested at 300-350 nM))
- inhibition of PIM1 (PIM1): − (inhibition under 50% (tested at 300-350 nM))
- inhibition of PLK1 (PLK1): − (inhibition under 50% (tested at 300-350 nM))
- inhibition of PRKACA (PKA) (PRKACA (PKA)): − (inhibition under 50% (tested at 300-350 nM))
- inhibition of PRKCB1 (PKC beta I) (PRKCB1 (PKC beta I)): − (inhibition under 50% (tested at 300-350 nM))
- inhibition of ROCK1 (ROCK1): − (inhibition under 50% (tested at 300-350 nM))
- inhibition of RPS6KA3 (RSK2) (RPS6KA3 (RSK2)): − (inhibition under 50% (tested at 300-350 nM))
- inhibition of RPS6KB1 (p70S6K) (RPS6KB1 (p70S6K)): − (inhibition under 50% (tested at 300-350 nM))
- inhibition of SRC (SRC): + (inhibition over 50% (tested at 300-350 nM))
- inhibition of SYK (SYK): + (inhibition over 50% (tested at 300-350 nM))
- inhibition of TEK (Tie2) (TEK (Tie2)): − (inhibition under 50% (tested at 300-350 nM))
